The values that follow come from PMC5118688 (Scientific Reports, 2016).

What is called IC50 is the concentration needed to halve the response being measured.

The conditions of assay [1]: ref Hua et al. 11; cited from earlier work.
Assay [2] deals with mAb3C9. In words: optimized chemosynthesized antigen-based dcELISA (mAb3C9 and hapten 6-OVA). The settings on record: for CR (%): Hapten 6-OVA, (IC50 of parathion-methyl/IC50 of pesticide) × 100; for LOD (IC10): mAb3C9, Hapten 6-OVA; for IC50 ± SD: mAb3C9, coating antigen Hapten 6-OVA.
Experimental: (§1) The dcELISA procedure was performed as below. First, the plate (Costar, Corning Inc., New York, USA) was coated with coating antigen (100 μL/well in 1 × PBS) for 1 h at 37 °C. Then, the wells were washed four times with PBST (1 × PBS with 0.05% (v/v) Tween-20) and blocked with 2% skim milk (200 μL/well) for 1 h at 37 °C. After washing four times, 50 μL analyte in MeOH-water solution and 50 μL mAb-HRP in PBS were added. The plate was incubated for 1 h at 37 °C and then washed four times before adding TMB solution (100 μL/well). After incubation for 15 min at 37 °C, 50 μL/well of H2SO4 (2 mol/L) was added to stop the reaction, and the absorbance was recorded at 450 nm using the Model 680 plate reader (Bio-Rad, USA).
(§2) 18 kinds of O,O-dimethyl OPs and 6 kinds of O,O-diethyl OPs were purchased from National Standards of China and used for the selectivity and sensitivity study using the optimized dcELISA procedure. […] The IC50 value and detection limit of each OP were calculated. The CR value, which was used to evaluate the selectivity of the method, was calculated using the following equation:
A further assay has as its system mAb4D11. In words: optimized mAb4D11-based dcELISA. As to conditions: mAb4D11-based dcELISA.
In assay [3] the test system is mAb3C9. The experiment in a line: mimotope-based dcELISA (mAb3C9 and M20-GST-BAD/SA-HRP competitor). As to conditions: for CR (%): M20-GST-BAD, (IC50 of parathion-methyl/IC50 of pesticide) × 100; for LOD (IC10): mAb3C9, M20-GST-BAD; for IC50 ± SD: mAb3C9, competitor M20-GST-BAD. The class given is binding, mouse. The protocol:
To develop a mimotope-based dcELISA, the biotinylated mimotope fusion protein was firstly assembled with streptavidin-HRP conjugate (SA-HRP) utilized the high affinity of biotin and streptavidin. The assembly process was just mixing a certain amount of biotinylated mimotope fusion protein with SA-HRP and incubating them at 4 °C overnight before use as an HRP-labeled competitor.
An innovative mimotope-based dcELISA was developed and performed as below. […] TMB solution (100 μL/well) was added and incubated for 15 min at 37 °C.
The optimal condition for mimotope-based dcELISA was optimized as chemosynthesized antigen-based dcELISA. The selectivity and sensitivity of the developed mimotope-based dcELISA for the 24 OPs were also determined under the optimum condition.

For assay [4] the following is noted: ref Liang et al. 9; cited from earlier work.

Converted amounts (≈) assume the structure as drawn. Read-outs that look alike come from different tables or passages of the source. A value given as a limit tells only on which side of the number the result lay.

Experimental for mAb4D11: as §1, §2

For the molecule `COP(=S)(OC)Oc1ccc([N+](=O)[O-])cc1Cl` [Isochlorthion], the IC50 in assay [1] is 0.5766 µg/mL (≈ 1.94 µM).

In the case of `COc1nn(CSP(=S)(OC)OC)c(=O)s1` [Methidathion], in the assay on mAb3C9 [2], the “CR (%)” value was 162.9%, the “LOD (IC10)” value turned out to be 0.0006 µg/mL and the “IC50 ± SD” value stood at 0.0029 ± 0.0001 µg/mL (≈ 0.00959 µM). In addition, in the assay on mAb4D11, the “CR (%)” value is less than 0.3% and the IC50 is greater than 5 µg/mL. Moreover, in the assay on mAb3C9 [3], the “CR (%)” value is listed as 157.6%, the “LOD (IC10)” value was found to be 0.0006 µg/mL and the “IC50 ± SD” value amounted to 0.0032 ± 0.0002 µg/mL (≈ 0.0106 µM). Moreover, the IC50 in assay [4] is 0.1917 µg/mL (≈ 0.634 µM).

Regarding `CNC(=O)/C=C(\C)OP(=O)(OC)OC` [Monocrotophos], in the assay on mAb3C9 [2], the “CR (%)” value is recorded as 2.6%, the “LOD (IC10)” value turned out to be 0.0432 µg/mL and the “IC50 ± SD” value came out at 0.1791 ± 0.0086 µg/mL (≈ 0.803 µM). Besides, in the assay on mAb4D11, the “CR (%)” value is 0.5%, the half-maximal inhibitory concentration (IC50) worked out at 2.9145 µg/mL (≈ 13.1 µM) and the LOD is given as 594.3 ng/mL. Further, in the assay with mAb3C9 [3], the “CR (%)” value is 2.5%, the “LOD (IC10)” value came to 0.0616 µg/mL and the “IC50 ± SD” value was 0.2014 ± 0.0043 µg/mL (≈ 0.902 µM).

In the case of `CCOP(=O)(OCC)Oc1ccc([N+](=O)[O-])cc1` [Paraoxon-ethyl], in assay [1], the IC50 was 0.1622 µg/mL (≈ 0.589 µM).

With `COP(=O)(OC)Oc1ccc([N+](=O)[O-])cc1` [Paraoxon-methyl], in the assay on mAb3C9 [2], the “CR (%)” value was determined as 2.0%, the “LOD (IC10)” value was 0.0524 µg/mL and the “IC50 ± SD” value stood at 0.231 ± 0.0121 µg/mL (≈ 0.935 µM). In the assay on mAb4D11, the “CR (%)” value is recorded as 0.5%, the IC50 is 2.6433 µg/mL (≈ 10.7 µM) and the LOD came to 512.5 ng/mL. In the assay on mAb3C9 [3], the “CR (%)” value turned out to be 1.7%, the “LOD (IC10)” value was found to be 0.0632 µg/mL and the “IC50 ± SD” value was found to be 0.2949 ± 0.0093 µg/mL (≈ 1.19 µM). Further, the IC50 in assay [1] is 0.1187 µg/mL (≈ 0.48 µM).

`COP(=S)(OC)SCN1C(=O)c2ccccc2C1=O` [Phosmet]: the “CR (%)” value is recorded as 323.6% in the assay with mAb3C9 [2], less than 0.3% with mAb4D11 and 332.9% in the assay on mAb3C9 [3]. Also, the “LOD (IC10)” value in the assay with mAb3C9 [2] and in the assay with mAb3C9 [3] was 0.0003 µg/mL each time. Further, the figures for the “IC50 ± SD” value in the assay with mAb3C9 [2] and in the assay on mAb3C9 [3] were 0.0014 ± 0.0001 µg/mL (≈ 0.00441 µM) and 0.0015 ± 0.0001 µg/mL (≈ 0.00473 µM), respectively. In addition, the IC50 in the assay with mAb4D11 is greater than 5 µg/mL; in assay [4] it was 0.1597 µg/mL (≈ 0.503 µM).

Regarding `CCOP(=S)(OCC)O/N=C(\C#N)c1ccccc1` [Phoxim], in the assay with mAb3C9 [2], the “CR (%)” value was found to be 0.2%, the “LOD (IC10)” value stood at 0.4354 µg/mL and the “IC50 ± SD” value was found to be 2.6524 ± 0.112 µg/mL (≈ 8.89 µM). Moreover, in the assay with mAb4D11, the “CR (%)” value is given as 5.9%, the IC50 was determined as 0.2441 µg/mL (≈ 0.818 µM) and the LOD was 49.5 ng/mL. Further, in the assay on mAb3C9 [3], the “CR (%)” value turned out to be 0.2%, the “LOD (IC10)” value came to 0.4336 µg/mL and the “IC50 ± SD” value was found to be 2.5779 ± 0.0721 µg/mL (≈ 8.64 µM). Further, in assay [1], the IC50 was greater than 100 µg/mL.

With `CCN(CC)c1nc(C)cc(OP(=S)(OC)OC)n1` [Pirimiphos-methyl], in the assay on mAb3C9 [2], the “CR (%)” value was found to be 6.0%, the “LOD (IC10)” value was 0.0156 µg/mL and the “IC50 ± SD” value worked out at 0.0774 ± 0.0033 µg/mL (≈ 0.253 µM). Further, in the assay with mAb4D11, the “CR (%)” value worked out at 23.4%, the half-maximal inhibitory concentration (IC50) was 0.0621 µg/mL (≈ 0.203 µM) and the LOD was 9.1 ng/mL. Also, in the assay on mAb3C9 [3], the “CR (%)” value amounted to 6.0%, the “LOD (IC10)” value amounted to 0.0222 µg/mL and the “IC50 ± SD” value was determined as 0.0837 ± 0.0038 µg/mL (≈ 0.274 µM).

For `CCOP(=S)(OCC)Oc1cnc2ccccc2n1` [Quinalphos], in the assay with mAb3C9 [2], the “CR (%)” value amounted to 0.2%, the “LOD (IC10)” value came to 0.5123 µg/mL and the “IC50 ± SD” value stood at 2.8243 ± 0.0952 µg/mL (≈ 9.47 µM). Besides, in the assay on mAb4D11, the “CR (%)” value is reported as 7.9%, the IC50 stood at 0.1842 µg/mL (≈ 0.617 µM) and the LOD is 32.5 ng/mL. In addition, in the assay with mAb3C9 [3], the “CR (%)” value turned out to be 0.2%, the “LOD (IC10)” value was 0.5318 µg/mL and the “IC50 ± SD” value came to 3.2266 ± 0.0592 µg/mL (≈ 10.8 µM).

Consider `COP(=O)(OC)O/C(=C\Cl)c1cc(Cl)c(Cl)cc1Cl` [Tetrachlorvinphos], for which, in the assay on mAb3C9 [2], the “CR (%)” value was 8.6%, the “LOD (IC10)” value was 0.0089 µg/mL and the “IC50 ± SD” value was found to be 0.0544 ± 0.0021 µg/mL (≈ 0.149 µM). Also, in the assay with mAb4D11, the “CR (%)” value turned out to be 0.6%, the IC50 worked out at 2.4313 µg/mL (≈ 6.64 µM) and the LOD was found to be 536.3 ng/mL. In addition, in the assay on mAb3C9 [3], the “CR (%)” value is recorded as 8.5%, the “LOD (IC10)” value is 0.0112 µg/mL and the “IC50 ± SD” value came out at 0.0597 ± 0.0033 µg/mL (≈ 0.163 µM).
